# Reference: PMC3976407, “Inhibition of Fatty Acid Binding Proteins Elevates Brain Anandamide Levels and Produces Analgesia” (PLoS ONE, 2014)
# Tests used:
# CB1 = tested on: CB1; parameters: method as in PMID 23236415; conditions: previously demonstrated ref 31; cited from earlier work
# [1] = tested on: rectal temperature in mice; test: Rectal temperature; type: in vivo, mouse; conditions: 20 mg/kg, i.p., baseline vs 90 min
# Method: Rectal temperature was measured at baseline and 90 min following vehicle or drug administration, by inserting a thermocouple probe 1.5 cm into the rectum and the temperature was read using a thermocouple meter (Kent Scientific).
# rats subjected to CCI = test: Rat neuropathic pain model (chronic constriction injury of the sciatic nerve); type: in vivo; conditions: 20 mg/kg i.p.
# Description: Male Fisher 344 rats were habituated and pre-injury evoked responses were obtained. The Hargreaves test was used to assess thermal hyperalgesia. Briefly, plexiglass enclosures were set atop a plexiglass platform and infrared source set at 50% power located under the platform was used as the heat stimulus (Ugo Basile). A 200 mW, 535 nm diode laser was mounted in an adjustable stand placed beneath the plexiglass platform, and was used as an alternative heat stimulus for some of the animals in this study. The latency time to hind paw lift during heating of the plantar surface was recorded. Five recordings were obtained on each hind paw with at least 2 min rest between measurements. The maximum time for exposure to the infrared or diode laser source was 30.5 s to avoid any possible tissue injury. For mechanical threshold measurements, the animal enclosures rested on a screen with mesh of 0.5 cm spacing. Following acclimation, an electronic von Frey Anesthesiometer (IITC Life Sciences) was applied with increasing pressure to the plantar surface of the hind paw until the animals lifted the hind paw. The number of grams of force applied by the probe to induce withdrawal was recorded. Five recordings were obtained on each hind paw with at least 3 min between measurements. For CCI surgeries, our procedure closely followed that reported previously. Briefly, each animal received an i.p. injection of ketamine/xylazine (75 mg/kg and 10 mg/kg, respectively). The hind leg was surgically prepped and the anesthetized animal placed prone on an sterile towel over a heating pad. The temperature was monitored rectally. A skin incision was made mid-thigh with a medium curved scalpel and then scissors were used to expose the sciatic nerve. Approximately 1 cm of the main trunk proximal to the trifuraction was isolated and 4 strands of 4-0 chromic gut were tied around the nerve ∼ 1 mm apart under magnification. In a modification of the original method, a 2-0 prolene strand was placed between the nerve and the gut to which the suture was tightened. The prolene strand was then removed. This prevented over tightening and reduced subsequent motor paralysis. The muscle layers were then reopposed and sutured, and surgical staples were used to close the skin. On post-injury days 7 through 10, heat and mechanical measurements were obained for the ipsilateral hindpaw of each CCI animal. Immediately following the post-injury measurements, animals were randomized and received i.p. injections of vehicle or 20 mg/kg SBI26 (DMSO:cremophor:sterile saline 1∶1∶2 by volume). Up to 0.8 ml of drug or vehicle was injected. The observer was blinded as to administration of drug or vehicle. Thermal and mechanical measurements were performed at 1 and 4 h post-injection. Data were normalized to pre-injury baseline measurements for each animal.
# FABP7 = FABP7 (Homo sapiens, UniProt O15540); test: NBD-stearate fluorescence displacement binding
# Method: (§1) Inhibitory constant (Ki) values were elucidated utilizing NBD-stearate fluorescence displacement as described previously [9], [31]. The tests were performed in 96-well plates containing inhibitors (0.1 – 50.0 μM), FABP, and NBD-stearate. Fluorescence intensity was measured with a FLUOstar OPTIMA spectrofluorometer with excitation and emission wavelengths of 460 and 544 nm, respectively.
# HeLa cells = test: Cytotoxicity, MTT colorimetric assay; type: cell-based; conditions: 24 hr incubation, n = 3
# Method: Cytotoxicity of the FABP inhibitors SBFI26 and BMS309403 were examined using the MTT [3-(4,5-dimethylthiazol-2-yl)-2,5 diphenyl tetrazolium bromide] colorimetric assay. HeLa cells were seeded into 96-well plates (15,000 cells/well) and incubated for 24 hours at 37°C in DMEM supplemented with 10% FBS, penicillin (100 U/mL) and streptomycin (100 μg/mL). The cells were subsequently washed with PBS and treated with serum-free DMEM containing 10 nM to 1 mM SBFI26, BMS309403, or 5 mM hydrogen peroxide as a positive control. Following a 24 hr incubation, the cells were washed with PBS and treated with MTT (0.5 mg/mL in PBS) for 4 hrs. The cells were subsequently solubilized using DMSO and the absorbance was read at 562 nm in a microplate reader.
# FABP3 = FABP3 (Homo sapiens, UniProt P05413); test: NBD-stearate fluorescence displacement binding
# Method: as §1
# [2] = tested on: formalin-induced nociception in mice; test: Formalin test; type: in vivo, mouse; conditions: 20 mg/kg, i.p.
# Method: Mice were habituated to the observation chamber (Plexiglas box, 25 cm×25 cm×25 cm) for 30 min prior to formalin injection. Mice were administered FABP inhibitors 60 min prior to formalin. The animals subsequently received an injection of formalin (2.5% in saline, 20 μl) into the plantar surface of the right hind paw using a 30 gauge needle and were immediately placed back into the observation chamber and nocifensive behavior (time spent licking or biting the paw) was recorded for 60 min. Nocifensive behavior was scored during the first phase (0–5 min) and the second phase (∼15–45 min) of the formalin test.
# [3] = tested on: acetic acid-induced writhing in mice; test: Acetic acid-induced writhing; type: in vivo, mouse
# Method: Mice were acclimated to the laboratory environment for at least two hours and were habituated to the testing chamber for 30 min prior to acetic acid challenge. SBFI26, SBFI50, SBFI60, and SBFI62 (20 mg/kg) were administered via the subcutaneous route 60 min before acetic acid. Rimonabant, SR144528, GW6471, and naloxone were given 10 min before the inhibitors via the subcutaneous route. The mice subsequently received an i.p. injection of acetic acid (0.6% in sterile saline, 10 μl/g) and were placed in observation chambers. Abdominal stretches (marked by extension of the body and hind limbs) were counted for 20 min starting at 5 min post-injection.
# Sequence of FABP7 (O15540 whole entry, species assumed): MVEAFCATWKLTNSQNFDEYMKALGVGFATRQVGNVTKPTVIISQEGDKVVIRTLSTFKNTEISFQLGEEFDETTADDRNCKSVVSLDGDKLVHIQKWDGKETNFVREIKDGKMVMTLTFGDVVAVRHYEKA
# Sequence of FABP3 (P05413 whole entry, species assumed): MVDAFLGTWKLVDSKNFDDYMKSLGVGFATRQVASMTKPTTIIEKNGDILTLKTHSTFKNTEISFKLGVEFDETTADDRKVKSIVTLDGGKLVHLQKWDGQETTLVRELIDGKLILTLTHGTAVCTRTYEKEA
structure (smiles),measurement,setting,value
"O=C(O)C1C(c2ccccc2)C(C(=O)Oc2cccc3ccccc23)C1c1ccccc1 (stereo not drawn) [SBFI26, alpha-2,4-diphenylcyclobutane-1,3-dicarboxylic acid mono-1-naphthyl ester]",Activation of CB1,CB1,does not activate
same,Rectal temperature,[1],does not reduce
same,Persistence of the effect on thermal hyperalgesia in CCI rats,rats subjected to CCI,up to 4 hrs
same,Effect on mechanical thresholds in CCI rats,rats subjected to CCI; 1 and 4 h,Neither compound altered
same,Effect on thermal hyperalgesia in CCI rats,rats subjected to CCI; measured 1 and 4 h post-injection,completely reversed
same,Ki,FABP7,0.4 µM
same,Cytotoxicity _50 values,HeLa cells,31.1 ± 4.1 µM
same,Ki,FABP3,3.9 ± 0.7 µM
same,Effect upon first phase of formalin-induced nociception,[2]; first phase 0–5 min,reduced
same,Effect upon second phase of formalin-induced nociception,[2]; second phase ∼15–45 min,reduced
same,Effect upon acetic acid-induced writhing,"[3]; 20 mg/kg, subcutaneous, 60 min before acetic acid",significantly reduced
same,Antinociceptive effects in the acetic acid test after pretreatment with PPARα antagonist GW6471,[3]; GW6471 4 mg/kg,blocked
same,Antinociceptive effects in the acetic acid test after pretreatment with CB2 antagonist SR144528,[3]; SR144528 3 mg/kg,failed to reverse
same,Dose of near maximal efficacy in acetic acid writhing,[3]; dose response analysis,20 mg/kg
same,Antinociceptive effects in the acetic acid test after pretreatment with opioid antagonist naloxone,[3]; naloxone 2 mg/kg,failed to reverse
same,Antinociceptive effects in the acetic acid test after pretreatment with CB1 antagonist rimonabant,[3]; rimonabant 3 mg/kg 10 min before inhibitor,completely blocked
